From patent publication US10759796B2, “CXCR4 inhibitors and uses thereof” (X4 Pharmaceuticals, Inc., priority 2016, dated 2020)

Tests used:
[1] = biological target: CXCR-4 transfected U87 cell line (U87.CXCR4) (Homo sapiens (Human), UniProt P61073); assay: Intracellular CXCL-12-induced calcium mobilization assay (FLIPR); format: cell-based; conditions: U87.CXCR4 cells, CXCL-12 25-50 ng/mL; read-out: IC50 CXCL-12 Ca2+ flux U87.CXCR4+
Experimental: Example 28: REGA Screening Assay
Intracellular CXCL-12-Induced Calcium Mobilization Assay
Intracellular calcium mobilization induced by chemokines or chemokine-derived peptides were evaluated using a calcium responsive fluorescent probe and a FLIPR system. The CXCR-4 transfected U87 cell line (U87.CXCR4) cells were seeded in gelatine-coated black-wall 96-well plates at 20,000 cells per well and incubated for 12 hours. Cells were then loaded with the fluorescent calcium probe Fluo-2 acetoxymethyl at 4 μM final concentration in assay buffer (Hanks' balanced salt solution with 20 mM HEPES buffer and 0.2% bovine serum albumin, pH 7.4) for 45 min at 37° C. The intracellular calcium mobilization induced by the CXCL-12 (25-50 ng/mL) was then measured at 37° C. by monitoring the fluorescence as a function of time in all the wells simultaneously using a fluorometric imaging plate reader (FLIPR Tetra, Molecular Devices).

[2] = biological target: Jurkat cells expressing CXCR4 (Homo sapiens (Human), UniProt P61073); assay: Chemokine (CXCL12-AF647) binding inhibition assay; conditions: CXCL12-AF647 25 ng/mL, read-out: IC50 CXCL-12 binding Jurkat
Experimental: Chemokine (CXCL12-AF647) Binding Inhibition Assay
Jurkat cells expressing CXCR4 were washed once with assay buffer (Hanks' balanced salt solution with 20 mM HEPES buffer and 0.2% bovine serum albumin, pH 7.4) and then incubated for 15 min at room temperature with the test compounds diluted in assay buffer at dose-dependent concentrations. Subsequently, CXCL12-AF647 (25 ng/mL) was added to the compound-incubated cells. The cells were incubated for 30 min at room temperature. Thereafter, the cells were washed twice in assay buffer, fixed in 1% paraformaldehyde in PBS, and analyzed on the FL4 channel of a FACSCalibur flow cytometer equipped with a 635-nm red diode laser (Becton Dickinson, San Jose, Calif., USA).
The percentages of inhibition of CXCL12-AF647 binding were calculated according to the formula: [1−((MFI−MFINC)/(MFIPC−MFINC))]×100 where MFI is the mean fluorescence intensity of the cells incubated with CXCL12-AF647 in the presence of the inhibitor, MFINC is the mean fluorescence intensity measured in the negative control (i.e., autofluorescence of unlabeled cells), and MFIPC is the mean fluorescence intensity of the positive control (i.e., cells exposed to CXCL12-AF647 alone).

in vitro = conditions: human, Caco-2, pH 7.4
Experimental: Example 28: Caco-2 Permeability Assay
The goal of this assay was to evaluate the intestinal absorption potential of drug candidates using Caco-2 cell lines.
1. Prewarm Prewarm HBSS Buffer in 37° C. water bath
2. Sonicate Take compounds from −20° C., sonicate for a few minutes (no less than 1 minute)
HBSS buffer with 0.3% DMSO and 5 μM LY: add 150 μL DMSO and 50 μL LY (5 mM) into 50 ml HBSS buffer (pH 7.4).
HBSS buffer with 0.1% DMSO and 5 μM LY: add 50 μL DMSO and 50 μL LY (5 mM) into 50 mL HBSS buffer (pH 7.4).
HBSS buffer with 0.3% DMSO: add 150 μL DMSO into 50 ml HBSS buffer (pH 7.4).
HBSS buffer with 0.1% DMSO: add 50 μL DMSO into 50 ml HBSS buffer (pH 7.4).
Receiver Solution Buffer:
Prepare HBSS buffer with 0.4% DMSO: add 200 μL DMSO into 50 ml HBSS buffer (pH 7.4).
Prepare HBSS buffer with 0.4% DMSO and 5 μM LY: add 200 μL DMSO and 50 μL LY (5 mM) into 50 ml HBSS buffer (pH 7.4).
4. Measure TEER Take cell culture plate out of incubator, wash the cell monolayers with HBSS buffer, and then measure TEER values at Rm temperature. 5. Centrifuge Centrifuge the compound solution (from step 3) at 4000 rpm for 5 min before loading to donor chambers. 6. Dosing Add solution based on the volumes listed in the following table (make sure to take extra 100 μL of donor sample for TO as Backup).
7. Apical LYT0 Samples To determine LY concentration in the apical chember, take 100 μL sample from apical chambers into an opaque plate for LYT0. 8. Prewarm Prewarm apical and basolateral plates at 37° C. for about 5 min, then begin transport by placing the apical plate onto basolateral plate. 9. Incubation Keep the plates in incubator at 37° C. for 90 min. 10. Standard Curve Preparation
For 300 μM compound solution, add 6 μL of compound stock solution into 192 μL of MeOH/H2O (1:1).
Prepare Working Solution in MeOH/H2O (1:1)
3 μL (20×)+57 μL of 0.4% DMSO HBSS+60 μL ACN with IS (Osalmid or Imipramine) - - - 120 μL (1×)
11. Transport Termination Separate the apical plate from the basolateral plate after 90-min incubation.
12. Measure LY Take 100 μL samples from basolateral plate to an opaque plate as LYT90.
13. Measure LY concentrations for LYT0 and LYT90 by Fluorometer (at excitation of 485 nm/emission of 535 nm).
Study details: Test concentration 10 μM
Test systems: Caco-2/HBSS solution
Incubation conditions: 0, 90 min at 37° C.
Sample size: Duplicates (n=2)
Bioanalytical method: LC-MS/MS
For Millicell-24 Cell Culture Plates: surface area of the membrane=0.7 cm^2, VA=0.8 mL (A-to-B) or 0.4 mL (B-to-A)
1. Papp values were calculated based on calculated concentrations.
The compound numbers correspond to the compound numbers in Table 1.

Chain of CXCR-4 transfected U87 cell line (U87.CXCR4) (P61073 whole entry): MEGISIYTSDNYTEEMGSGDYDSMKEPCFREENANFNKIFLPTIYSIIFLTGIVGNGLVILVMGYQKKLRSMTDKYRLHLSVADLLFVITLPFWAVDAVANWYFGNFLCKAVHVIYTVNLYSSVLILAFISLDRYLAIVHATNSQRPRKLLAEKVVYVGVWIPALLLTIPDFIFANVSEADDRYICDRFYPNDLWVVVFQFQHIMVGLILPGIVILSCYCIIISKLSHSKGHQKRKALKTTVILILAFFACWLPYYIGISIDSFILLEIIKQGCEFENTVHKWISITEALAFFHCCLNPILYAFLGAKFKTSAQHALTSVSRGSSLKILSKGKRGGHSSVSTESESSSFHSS
Chain of Jurkat cells expressing CXCR4 (P61073 whole entry): as above

| SMILES | IC50 [1] [nM] | IC50 [2] [nM] | Papp A→B at 90 min, 10 μM (in vitro) [×10⁻⁶ cm/s] | Papp B→A at 90 min, 10 μM (in vitro) [×10⁻⁶ cm/s] | efflux ratio at 90 min, 10 μM (in vitro) |
| --- | --- | --- | --- | --- | --- |
| Cc1cccnc1[C@@H]1CCC[C@H](c2nc3ccccn3c2COC2CCN(C)CC2)N1C [Compound I-62] | ≥ 1000 | 100 to 1000 | 0.1 to 10 | 10 to 30 | > 30 |
| Cc1cccnc1[C@@H]1CCC[C@H](c2nc3ccccn3c2COC2CCCN(C)C2)N1C (stereo partly drawn) [Compound I-63] | 100 to 1000 | 0.01 to 100 | 0.1 to 10 | 10 to 30 | 10 to 30 |
| Cc1cccnc1[C@@H]1CCC[C@H](c2cn3c(N4CCN(C5CC5)CC4)cccc3n2)N1C [Compound I-66] | 100 to 1000 | 0.01 to 100 | 10 to 30 | 10 to 30 | 0.1 to 10 |
| Cc1cccnc1[C@@H]1CCC[C@H](c2nc3cccc(N4CCN(C5CC5)CC4)n3c2Br)N1C [Compound I-67] | 100 to 1000 | 0.01 to 100 | 0.1 to 10 | 0.1 to 10 | 0.1 to 10 |
| Cc1cccnc1[C@@H]1CCC[C@H](c2cn3c(N4CC5CCC(C4)N5C)cccc3n2)N1C [Compound I-68] | 0.01 to 100 | 0.01 to 100 | 0.1 to 10 | 10 to 30 | 10 to 30 |
| Cc1cccnc1[C@@H]1CCC[C@H](c2cn3c(N4C5CCC4CN(C)C5)cccc3n2)N1C [Compound I-69] | 0.01 to 100 | 0.01 to 100 | 0.1 to 10 | 10 to 30 | 0.1 to 10 |
| Cc1cccnc1[C@@H]1CCC[C@H](c2nc3ccccn3c2CN2CCOCC2)N1C [Compound I-73] | ≥ 1000 | 100 to 1000 | 10 to 30 | 10 to 30 | 0.1 to 10 |
| CCN1CCN(c2cccc3nc([C@H]4CCC[C@@H](c5ncccc5C(C)C)N4C)c(CO)n23)CC1 [Compound I-75] | ≥ 1000 | 100 to 1000 | 0.1 to 10 | 10 to 30 | 0.1 to 10 |
| CN1CCN(c2cccc3nc([C@H]4CCC[C@@H](c5ncccc5C(F)(F)F)N4C)cn23)CC1 [Compound I-80] | 100 to 1000 | 0.01 to 100 | 0.1 to 10 | 0.1 to 10 | 0.1 to 10 |
| CN1CCN(c2cccc3nc([C@H]4CCC[C@@H](c5ncccc5OC(F)(F)F)N4C)cn23)CC1 [Compound I-81] | 100 to 1000 | 0.01 to 100 | 10 to 30 | 10 to 30 | 0.1 to 10 |
| Cc1cccnc1[C@@H]1CCC[C@H](c2nc3ccccn3c2C=C2CCN(C)CC2)N1C [Compound I-83] | 100 to 1000 | 0.01 to 100 | 0.1 to 10 | 10 to 30 | 10 to 30 |
| C#Cc1c([C@H]2CCC[C@@H](c3ncccc3C)N2C)nc2cccc(N3CCN(C)CC3)n12 [Compound I-89] | 0.01 to 100 | 0.01 to 100 | 0.1 to 10 | 0.1 to 10 | 0.1 to 10 |
| CC(C)c1cccnc1[C@@H]1CCC[C@H](c2nc3cccc(N4CCN(C)CC4)n3c2Cl)N1C [Compound I-91] | ≥ 1000 | 100 to 1000 | 0.1 to 10 | 0.1 to 10 | 0.1 to 10 |

Now from value to compound:

| IC50 [1] [nM] | IC50 [2] [nM] | Papp A→B at 90 min, 10 μM (in vitro) [×10⁻⁶ cm/s] | Papp B→A at 90 min, 10 μM (in vitro) [×10⁻⁶ cm/s] | efflux ratio at 90 min, 10 μM (in vitro) | SMILES |
| --- | --- | --- | --- | --- | --- |
| 0.01 to 100 | 0.01 to 100 | 0.1 to 10 | 10 to 30 | 0.1 to 10 | CCN1CCN(c2cccc3nc([C@H]4CCC[C@@H](c5ncccc5C)N4C)c(COC(C)C)n23)CC1 [Compound I-60] |
| 0.01 to 100 | 0.01 to 100 | 0.1 to 10 | 10 to 30 | 0.1 to 10 | CCN1CCN(c2cccc3nc([C@H]4CCC[C@@H](c5ncccc5C)N4C)c(CO)n23)CC1 [Compound I-61] |
| 0.01 to 100 | 0.01 to 100 | 0.1 to 10 | 10 to 30 | 10 to 30 | Cc1cccnc1[C@@H]1CCC[C@H](c2cn3c(N4CCN(C)CC4)ccc(N)c3n2)N1C [Compound I-76] |
| 0.01 to 100 | 0.01 to 100 | 10 to 30 | > 30 | 0.1 to 10 | Cc1cccnc1[C@@H]1CCC[C@H](c2cn3c(N4CCN5CCCC5C4)cccc3n2)N1C (stereo partly drawn) [Compound I-77] |
| 0.01 to 100 | 0.01 to 100 | 0.1 to 10 | 10 to 30 | > 30 | Cc1cccnc1[C@@H]1CCC[C@H](c2cn3c(N4CCC(N(C)C)CC4)cccc3n2)N1C [Compound I-78] |
| 0.01 to 100 | 0.01 to 100 | 0.1 to 10 | 10 to 30 | 0.1 to 10 | CN1CCN(c2cccc3nc([C@H]4CCC[C@@H](c5ncccc5C5CC5)N4C)cn23)CC1 [Compound I-79] |
| 0.01 to 100 | 0.01 to 100 | 0.1 to 10 | 10 to 30 | 0.1 to 10 | CN1CCN(c2cccc3nc([C@H]4CCC[C@@H](c5ncccc5Cl)N4C)cn23)CC1 [Compound I-82] |
| 0.01 to 100 | 0.01 to 100 | 0.1 to 10 | 10 to 30 | 0.1 to 10 | Cc1cccnc1[C@@H]1CCC[C@H](c2nc3cccc(N4CCN(C)CC4)n3c2COC2CC2)N1C [Compound I-85] |
| 0.01 to 100 | 0.01 to 100 | 0.1 to 10 | 10 to 30 | 10 to 30 | Cc1cccnc1[C@@H]1CCC[C@H](c2nc3cccc(N4CCN(C)CC4)n3c2C)N1C [Compound I-86] |
| 0.01 to 100 | 0.01 to 100 | 0.1 to 10 | 10 to 30 | 10 to 30 | Cc1cccnc1[C@@H]1CCC[C@H](c2cn3c(N4CCN(C)CC4)cccc3n2)N1CCO [Compound I-87] |
| 0.01 to 100 | 0.01 to 100 | 0.1 to 10 | 0.1 to 10 | 0.1 to 10 | CCN1CCN(c2cccc3nc([C@H]4CCC[C@@H](c5ncccc5C)N4C)c(Cl)n23)CC1 [Compound I-88] |
